Assay results reported in patent US20160318856A1, “Substituted Urea eIF2alpha Kinase Activators” (THE BRIGHAM AND WOMEN'S HOSPITAL, INC., priority 2013, published 2016).
Read-outs that look alike come from different tables or passages of the source.

Experiments:
[1] = system: CRL-2813 human melanoma cancer cells; assay: cell proliferation (SRB) assay, CRL-2813; assay type: cell-based; settings: Homo sapiens, CRL2813
Outline: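 Cells exposed 5 days to 0.5–20 μM compound, then TCA-fixed and stained with sulforhodamine B. Growth as 100×[(T−T0)/(C−T0)] from absorbance of treated, control and time-zero cultures; cell death as 100×[(T−T0)/T0] where T is below T0.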

[2] = system: CRL-2813 human melanoma cancer cells transfected with HRI-targeting or non-targeting siRNA; assay: cell proliferation (SRB) assay after HRI knockdown; assay type: cell-based; settings: CRL-2813 cells, FIG. 10
Protocol: (§1) Cells were seeded in 96-well plates and maintained for 5 days in the presence of 0.5 to 20 μM of individual compound, and cell proliferation was measured by the sulforhodamine B (SRB) assay as described previously (see, for example, Palakurthi, S. S. et al. Cancer Research 2000, 60(11), 2919-2925). Briefly, at the end of a 5-day treatment, cells were fixed in 10% cold trichloroacetic acid. Cell number was estimated by measuring the remaining bound dye of sulforhodamine B after washing. The percentage of growth was calculated by using the equation: 100×[(T−T0)/(C−T0)], where T and C represent the absorbance in treated and control cultures at Day 5, and T0 at time zero, respectively. If T is less than T0, cell death has occurred and can be calculated from 100×[(T−T0)/T0].
Cell proliferation is a meaningful read-out for determining the specificity of a compound as it captures both on-target and off-target effects of the compound under study. […] If these compounds specifically activate HRI and this activity is required for the inhibition of cell proliferation, then reducing the expression of HRI should blunt their effect on cell proliferation. For this purpose, expression of HRI was knocked down in CRL-2813 human melanoma (about 70% knockdown efficiency) and MCF-7 human breast cancer cells (about 90% knockdown efficiency). These two cell lines were chosen because the HRI knockdown efficiency is lower in CRL-2813 than in MCF-7 cells providing a sort of dose-response data that correlates knockdown efficiency with the resistance of cells to inhibition of cell proliferation. […] Referring to FIG. 5A, CRL-2813 human melanoma cancer cells, and (FIG. 5B) MCF-7 human breast cancer cells were transfected with HRI targeted or non-targeted siRNA, treated with the indicated concentrations of I-6p and cell proliferation was measured by SRB assay. Calculated IC50 for all four compounds tested in CRL-2813 human melanoma cancer cells and MCF-7 human breast cancer cells transfected with non-target siRNA control (NTC) or HRI is shown in FIG. 5C and FIG. 5D, respectively. The experiment was conducted in triplicate and each experiment was independently performed three times. Data are shown as Mean±S.E.M. *NTC=non-target siRNA control.
Referring to FIG. 8, CRL-2813 human melanoma cancer cells were transfected with HRI targeted or non-targeted siRNA, treated with the indicated concentrations of (A) I-14, (B) I-15, (C) III-4 and (D) III-5 and cell proliferation was measured by SRB assay. Calculated IC50 for all four compounds tested in CRL-2813 human melanoma cancer cells transfected with non-target siRNA control (NTC) or HRI is shown in (E). The experiment was conducted in triplicate and each experiment was independently performed three times. Data are shown as Mean±S.E.M. *NTC=non-target siRNA control, IC50=effective dose of drug that inhibit cell proliferation by 50%.
In general, if the affinity of compounds for their molecular target is increased this should result in higher specificity of the compounds in the cell proliferation assay. […] These five compounds, two with average and three with high potency, were tested in cell proliferation assay using CRL-2813 cells transfected with non-targeted siRNA or HRI-targeted siRNA as described above.

[3] = system: eIF2α phosphorylation (eIF2•GTP•Met-tRNAi ternary complex; HRI activation); assay: surrogate dual luciferase eIF2α phosphorylation (ternary complex) assay; assay type: cell-based, human; settings: Homo sapiens; surrogate eIF2α phosphorylation assay, Table 3; read-out: Emax (F/R)
Outline: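 Cell-based dual luciferase reporter: firefly luciferase behind the ATF-4 5′UTR (uORFs) and renilla luciferase behind a uORF-free 5′UTR, read with a dual glow kit. Activity given as firefly/renilla ratio normalised to DMSO wells set at 1, with a rising ratio reflecting reduced ternary complex (e.g., HRI activation).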

NIH/3T3 fibroblast cells = assay: cell proliferation (SRB) assay, NIH/3T3; assay type: cell-based; settings: Mus musculus, NIH3T3; NIH/3T3, Table 8; Mean IC50±S.E.M.; read-out: IC50 of compounds
Protocol: as §1
The experiments were conducted in triplicate, and each experiment was independently performed three times. IC50=effective dose of drug that inhibit cell proliferation by 50%. Data are shown as Mean±S.E.M.
Compounds I-6p, I-17, I-18 and I-20 were tested in NIH/3T3 fibroblast and CRL-2813 melanoma cancer cells in cell proliferation assay. The experiment was conducted in triplicate and each experiment was independently performed three times. Data are shown as Mean IC50±S.E.M.

- IC50 ([1]; CRL-2813, Table 8, Mean IC50±S.E.M., read-out: IC50 of compounds): 1300 ± 100 nM
- IC50 ([1]; cell proliferation assay, Table 3, cell line not named, values equal CRL-2813 values of Table 8, read-out: IC50): 1300 ± 100 nM
- fold higher IC50 values in cells transfected with HRI-targeting siRNA vs. non-targeting siRNA [2]: ~5 fold
SMILES: O=C(Nc1cccc(C(F)(F)F)c1)NC1CCC(Oc2cccc(C(F)(F)F)c2)CC1 (centres unmarked) [Compound I-20, 1-(4-(3-(Trifluoromethyl)phenoxy)cyclohexyl)-3-(3-(trifluoromethyl)phenyl)urea]
- maximal fold induction [3]: 26
- IC50 (NIH/3T3 fibroblast cells): 3300 ± 200 nM
